A word on the EC50: it is the concentration that produces a half-maximal response. The low end stands for greater potency, the high end for weaker potency.

The values below come from patent US20120245344A1 (NIPPON CHEMIPHAR CO., LTD., priority 2009, published 2012).

The experiment addresses T1, human GPR119 (Homo sapiens, UniProt Q8TDV5).
T1 construct: expressed in transfected cells; host or cells: Flp-in T-Rex-293 cells (Invitrogen #R78007), plasmid pcDNA5/FRT/TO, expression induced with tetracycline
T1 sequence (Q8TDV5 1-335): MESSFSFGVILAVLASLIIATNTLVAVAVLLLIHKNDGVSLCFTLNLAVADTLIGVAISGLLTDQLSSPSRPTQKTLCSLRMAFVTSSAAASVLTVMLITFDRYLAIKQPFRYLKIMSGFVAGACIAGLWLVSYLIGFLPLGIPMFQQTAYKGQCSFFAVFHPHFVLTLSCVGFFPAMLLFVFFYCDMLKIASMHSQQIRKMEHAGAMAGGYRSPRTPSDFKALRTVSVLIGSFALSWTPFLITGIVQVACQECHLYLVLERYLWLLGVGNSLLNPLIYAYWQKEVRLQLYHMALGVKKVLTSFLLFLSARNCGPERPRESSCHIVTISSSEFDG
As to the kind of experiment: Measurement of intracellular cAMP in stable cell line expressing human GPR119 (GPR119 agonist effect). The experiment is classed as cell-based. Particulars: for EC50: increase of intracellular cAMP, Flp-in T-Rex-293 cells expressing human GPR119, 37° C. for 30 minutes; for GPR119 agonist effect (in words): statement in words on Tables 10 to 13.
Source text: The GPR119 agonist effect is studied by measuring the effect of an analyte on increase of intracellular amount of cAMP in human GPR119 introduced cells. The testing method is described below.
Human GPR119 gene (NM 178471) is purchased from ATCC (ATCC No. 10807349), and is amplyfied according to PCR to form BamHI site at 5′ side and Apa I site at 3′ side. The primers are […] (sequence No. 1) and […] (sequence No. 2). The PCR conditions are described below.
The double-stranded DNA is thermally denatured using a DNA polymerase (KOD-Plus-Ver. 2; TOYOBO #KOD-211) at 98° C. for 10 seconds in one cycle. The denatured single-stranded DNA is annealed with the primers at 55° C. for 30 seconds. The DNA is subjected to an extension reaction at 68° C. for 1 minute and 15 seconds. The above-mentioned steps are repeated in 35 cycles. The PCR product is inserted into pcDNA5/FRT/TO (Invitrogen #V6520-20) plasmid. Flp-in T-Rex-293 cells (Invitorogen #R78007) are transfected with the obtained plasmid. The method of transfection is conducted in accordance with the protocol of the product.
(§1) The stable cell line expressing human GPR119 prepared in the above-mentioned method is plated on a 96-well plate at the concentration of 2,500 cells/well using Dulbecco's Modified Eagle Medium (DMEM) containing 10% fetal bovine serum (FBS). Twenty-four hours after plating, tetracyclin (Invitrogen #Q10019) is added at the final concentration of 20 ng/mL to induce hGPR119 gene expression. Twenty-four hours after, the medium is removed, and the cells are stimulated with an assay buffer (0.5 mM IBMX PBS (−)) containing the test compound at 37° C. for 30 minutes. The amount of the intracellular cAMP is measured using a commercially available kit (HitHunter™ cAMP XS+Assay: GE Healthcare #90007503) and a reader (FLUOstar Optima: BMG LABTECH). The test compound is dissolved in 100% DMSO, and added at the final concentration of 1%.
Human GPR119 gene (NM 178471) was purchased from ATCC (ATCC No. 10807349), and is amplyfied according to PCR to form BamHI site at 5′ side and Apa I site at 3′ side. The primers were […] (sequence No. 1) and […] (sequence No. 2). The PCR conditions are described below. The double-stranded DNA was thermally denatured using a DNA polymerase (KOD-Plus-Ver. 2; TOYOBO #KOD-211) at 98° C. for 10 seconds in one cycle. The denatured single-stranded DNA was annealed with the primers at 55° C. for 30 seconds. The DNA was subjected to an extension reaction at 68° C. for 1 minute and 15 seconds. The above-mentioned steps were repeated in 35 cycles. The PCR product was inserted into pcDNA5/FRT/TO (Invitrogen #V6520-20) plasmid. Flp-in T-Rex-293 cells (Invitorogen #R78007) were transfected with the obtained plasmid. The method of transfection was conducted in accordance with the protocol of the product.
as §1, with “method was” for “method is”, “#Q10019) was” for “#Q10019) is”, “medium was” for “medium is”, “cells were” for “cells are”, “cAMP was” for “cAMP is”, “compound was” for “compound is”
The examination was performed by the method similar to Example 87 Pharmacological experiment 1-(1), -(2).

`CCc1cnc(N2CCC(c3ccc(Cn4ccc5cc(S(C)(=O)=O)cc(F)c54)nc3)CC2)nc1` [Example 34, 5-Ethyl-2-[4-[2-(7-fluoro-5-methanesulfonylindol-1-ylmethyl)pyridin-5-yl]piperidin-1-yl]pyrimidine]: the EC50 turned out to be 30.4 nM.

With `CC(C)(C)OC(=O)N1CCC(c2ccc(CN3CCc4cc(-n5cnnn5)cc(F)c43)nc2)CC1` [Example 38, tert-Butyl 4-[2-[7-fluoro-5-(tetrazol-1-yl)indolin-1-ylmethyl]pyridin-5-yl]piperidine-1-carboxylate], the response was half-maximal at 5.4 nM (EC50) and the “GPR119 agonist effect (in words)” value is “excellent GPR119 agonist effect”.

As for `CC(C)(C)OC(=O)N1CCC(c2ccc(Cn3ccc4cc(-n5cnnn5)cc(F)c43)nc2)CC1` [Example 41, tert-Butyl 4-[2-[7-fluoro-5-(tetrazol-1-yl)indol-1-ylmethyl]pyridin-5-yl]piperidine-1-carboxylate], the EC50 stood at 3.7 nM and the “GPR119 agonist effect (in words)” value is on record as “excellent GPR119 agonist effect”.

Molecule `CC(C)(C)OC(=O)N1CCC(c2ccc(Cn3ccc4c(F)c(S(C)(=O)=O)cc(F)c43)nc2)CC1` [Example 42, tert-Butyl 4-[2-(4,7-difluoro-5-methanesulfonylindol-1-ylmethyl)pyridin-5-yl]piperidine-1-carboxylate] returned a half-maximal effective concentration (EC50) of 22.9 nM.

The molecule `CC1CN(C(=O)OC(C)(C)C)CC=C1c1ccc(Cn2ccc3cc(S(C)(=O)=O)ccc32)nc1` (stereo not drawn) [Example 43, tert-Butyl 4-[2-(5-methanesulfonylindol-1-ylmethyl)pyridin-5-yl]-3-methyl-3,6-dihydro-2H-pyridine-1-carboxylate] gave an EC50 of 58.7 nM.

As for `CC1CN(C(=O)OC(C)(C)C)CCC1c1ccc(Cn2ccc3cc(S(C)(=O)=O)ccc32)nc1` (stereo not drawn) [Example 44, tert-Butyl 4-[2-(5-methanesulfonylindol-1-ylmethyl)pyridin-5-yl]-3-methylpiperidine-1-carboxylate], the response was half-maximal at 13.5 nM (EC50).

`CC(C)(C)OC(=O)N1CC=C(c2ccc(Cn3ccc4cc(S(C)(=O)=O)ccc43)nc2)C(C)(C)C1` [Example 45, tert-Butyl 3,3-dimethyl-4-[2-(5-methanesulfonylindol-1-ylmethyl)pyridin-5-yl]-3,6-dihydro-2H-pyridine-1-carboxylate] showed an EC50 of 186 nM. This EC50 is about 14-fold higher than that of the molecule before.

Turning to `CC(C)(C)OC(=O)N1CCC(c2ccc(Cn3ccc4cc(S(C)(=O)=O)ccc43)nc2)C(C)(C)C1` (stereo not drawn) [Example 46, tert-Butyl 3,3-dimethyl-4-[2-(5-methanesulfonylindol-1-ylmethyl)pyridin-5-yl]piperidine-1-carboxylate], the concentration giving a half-maximal response (EC50) is 111 nM.

As to `CC(C)(C)OC(=O)N1CCC(c2ccc(Cn3ccc4cc(S(C)(=O)=O)cc(C(F)(F)F)c43)nc2)CC1` [Example 49, tert-Butyl 4-[2-(5-methanesulfonyl-7-trifluoromethylindol-1-ylmethyl)pyridin-5-yl]piperidine-1-carboxylate], a half-maximal response (EC50) required 297 nM.

`CC(C)(C)OC(=O)N1CCC(c2ccc(Cn3ccc4cc(S(C)(=O)=O)ccc43)nc2)C1` (stereo not drawn) [Example 50, tert-Butyl 3-[2-(5-methanesulfonylindol-1-ylmethyl)pyridin-5-yl]pyrrolidine-1-carboxylate] displayed an EC50 of 375 nM.

On to `CC(C)(C)OC(=O)N1CCCC(c2ccc(Cn3ccc4cc(S(C)(=O)=O)ccc43)nc2)CC1` (stereo not drawn) [Example 51], for which the EC50 came out at 115 nM.

Take `CC(C)(C)OC(=O)N1CCC(c2ccc(Cn3ccc4cc(S(C)(=O)=O)c(F)c(F)c43)nc2)CC1` [Example 55, tert-Butyl 4-[2-(6,7-difluoro-5-methanesulfonylindol-1-ylmethyl)pyridin-5-yl]piperidine-1-carboxylate]: the EC50 worked out at 10.7 nM.

Molecule `CC(C)(C)OC(=O)N1CCC(c2ccc(Cn3ccc4cc(-n5cncn5)ccc43)nc2)CC1` [Example 56, tert-Butyl 4-[2-[5-(1,2,4-triazol-1-yl)indol-1-ylmethyl]pyridin-5-yl]piperidine-1-carboxylate] came in with an EC50 of 26.2 nM.
